In brackets after ≈: the same amount, converted by molar mass. Counter-ions that a name gives are not always drawn.
Columns and labels:
[1] = Solubilities at ambient temperature; assay type: physicochemical

| Compound | melting point [°C] | also measured |
| --- | --- | --- |
| O=C1C[C@H](c2ccccc2)c2cc(C(=O)O)ccc2O1 (as salt: salt) [Example 3, (R)-4-Phenyl-2-chromanone-6-carboxylic acid] | 197.5 | – |
| O=C1CC(c2ccccc2)c2cc(C(=O)O)ccc2O1 (racemic) [Example 1, (R,S)-4-Phenyl-2-chromanone-6-carboxylic acid] | 246 | – |
| COC(=O)c1ccc2c(c1)C(c1ccccc1)CC(=O)O2 (racemic) [Example 5a] | 97 to 99 | – |
| CC(C)OC(=O)c1ccc2c(c1)C(c1ccccc1)CC(=O)O2 (racemic) [Example 5c] | 85.9 | – |
| O=C1C[C@H](c2ccccc2)c2cc(C(=O)O)ccc2O1 [Example 3, (R)-4-Phenyl-2-chromanone-6-carboxylic acid] | 224.9 | – |
| COC(=O)c1ccc(O)c([C@H](CCN(C(C)C)C(C)C)c2ccccc2)c1 [Example 8b, (R)-(−)-3-(3-Diisopropylamino-1-phenylpropyl)-4-hydroxybenzoic acid methyl ester] | 143.7 | – |
| CC(C)N(CC[C@H](c1ccccc1)c1cc(C(=O)O)ccc1O)C(C)C [Example 9, (R)-(−)-3-(Diisopropylamino-1-phenylpropyl)-4-hydroxybenzoic acid] | 102.3 | – |
| CC(C)N(CC[C@H](c1ccccc1)c1cc(CO)ccc1O)C(C)C [Example 13, (R)-2-(3-diisopropylamino-1-phenylpropyl)-4-hydroxymethylphenol] | – | solubility ([1]; in water): ~10000 µg/mL (≈ 29.3 mM); solubility ([1]; organic solvent or mixture, in 2-butanone): < 200 µg/mL; solubility ([1]; organic solvent or mixture, in dichloromethane): < 200 µg/mL; solubility ([1]; organic solvent or mixture, in ethyl acetate): < 200 µg/mL; solubility ([1]; organic solvent or mixture, in methanol): > 50000 µg/mL |

— US6809214B2, “Shortened synthesis of 3,3-diarylpropylamine derivatives” (Schwartz Pharma AG, priority 2000, dated 2004)
